Legend:
[1] = Enhancement of the sweet impression of sucrose-containing yoghurt, rated 1-10 by a group of experts; type: in vivo; conditions: 200 ppm in yoghurt (0.5% fat content), sucrose 5%
Description: In order to quantify the enhancement of a sweet impression by addition of the propenylphenyl glycosides to be used according to the invention, the sweetness of sucrose-containing yoghurt (0.5% fat content) and of samples containing the same amount of sucrose and in addition a specific concentration of the propenylphenyl glycosides of formula (I) to be used according to the invention was determined by a group of experts (rating 1 [extremely slightly sweet] to 10 [extremely sweet]). Evaluation was carried out by calculating the enhancement (in %) of the sweetness impression from the average values of the assessments of the yoghurts containing sucrose (a) or sucrose and propenylphenyl glycoside (b).

[2] = Low-fat yoghurts with reduced sugar, sensory duo test with 16 panellists; type: in vivo; conditions: yoghurt 0.1% fat, 8% versus 10% sucrose; compound 1 0.015%, hesperetin 0.01%
Description: Comparison preparation with sugar (A) Comparison preparation with reduced sugar content […] Preparations according to the invention with reduced sugar content and compound 1 (C) Comparison preparation with reduced sugar content and hesperetin (D)
The ingredients were mixed and cooled at 5° C.

SMILES	% Enhancement of the sweetness impression ([1]; (16/10), p < 0.05)	Sweetness impression (1-10) b) with ([1]; rating 1 extremely slightly sweet to 10 extremely sweet)	Compensation of the loss of sweetness as a result of sugar reduction [2]
C=CCc1ccc(O[C@@H]2O[C@H](CO)[C@@H](O)[C@H](O)[C@H]2O)cc1 [compound 1, 1-O-[4-(propen-2-enyl)phenyl]-D-glucopyranoside]	+24%	4.9 ± 1.4	–
COc1ccc(C2CC(=O)c3c(O)cc(O)cc3O2)cc1O (stereo not drawn) [hesperetin, reference compound]	–	–	less good results
